Key:
[1] = tested on: NCI-H358 (K-Ras G12C); assay: CellTiter-Glo cell viability assay, NCI-H358; assay type: cell-based, human; conditions: Homo sapiens, NCI-H358, 120 h, NCI-H358, 5-day treatment; class symbols; read-out: Additional H358 Cell Viability assay data (K-Ras G12C, IC50)
Summary of the method: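 Compounds were dispensed directly onto K-Ras mutant cells and incubated until day 5, then plates were equilibrated to room temperature for about 30 minutes before CellTiter-Glo luminescence. Signals were normalized as (sample/average DMSO)*100 and fitted by four-parameter logistic fit.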

[2] = molecular target: K-Ras G13C (Homo sapiens (Human), UniProt P01116+P62937, G13C); assay: Ras-Raf (BRAF RBD) disruption / FRET / MOA assay, KRAS G13C; assay type: biochemical; conditions: KRAS G13C; Ras-Raf disruption/FRET/MOA assay; read-out: IC50* KRAS G13C FRET data
Summary of the method: (§1)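 TR-FRET read-out: a drop in ratio relative to DMSO wells marks disruption of the Ras:RAF complex, reported as IC50. Compounds (3-fold series, 10 points, top 30 μM final) incubated 3 h at 25° C before Eu-anti-His 10 nM and APC-anti-GST 50 nM, 1.5 h more.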

[3] = molecular target: NRAS Q61R (Homo sapiens (Human), UniProt P01111+P62937, Q61R); assay: Ras-Raf (BRAF RBD) disruption / FRET / MOA assay, NRAS Q61R; assay type: biochemical; conditions: NRAS Q61R; Ras-Raf disruption/FRET/MOA assay; read-out: IC50* NRAS Q61R FRET data
Summary of the method: (§2)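 Compounds were tested as a 10-point 3-fold dilution series from 30 μM final for their ability to drive ternary complex formation between nucleotide-loaded Ras and cyclophilin A, displacing the BRAF RBD. After 3 h at 25° C., anti-His Eu-W1024 (10 nM) and anti-GST allophycocyanin (50 nM) were added for 1.5 h. A TR-FRET ratio decrease versus DMSO gave IC50.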

[4] = molecular target: NRAS Q61K (Homo sapiens (Human), UniProt P01111+P62937, Q61K); assay: Ras-Raf (BRAF RBD) disruption / FRET / MOA assay, NRAS Q61K; assay type: biochemical; conditions: NRAS Q61K; Ras-Raf disruption/FRET/MOA assay; read-out: IC50* NRAS Q61K FRET data
Summary of the method: as §2

[5] = molecular target: KRAS WT (Homo sapiens (Human), UniProt P01116+P62937); assay: Ras-Raf (BRAF RBD) disruption / FRET / MOA assay, KRAS WT; assay type: biochemical; conditions: read-out: IC50* KRAS WT FRET data
Summary of the method: as §1

[6] = molecular target: KRAS G12S (Homo sapiens (Human), UniProt P01116+P62937, G12S); assay: Ras-Raf (BRAF RBD) disruption / FRET / MOA assay, KRAS G12S; assay type: biochemical; conditions: Ras-Raf disruption/FRET/MOA assay; class symbols; read-out: KRAS G12S FRET data IC50
Summary of the method: as §1

[7] = molecular target: KRAS Q61H (Homo sapiens (Human), UniProt P01116+P62937, Q61H); assay: Ras-Raf (BRAF RBD) disruption / FRET / MOA assay, KRAS Q61H; assay type: biochemical; conditions: Ras-Raf disruption/FRET/MOA assay; class symbols; read-out: KRAS Q61H FRET data IC50
Summary of the method: as §2

Sequence of KRAS G12S (P01116-2 other isoform, or with tags, fused parts or gaps G12S): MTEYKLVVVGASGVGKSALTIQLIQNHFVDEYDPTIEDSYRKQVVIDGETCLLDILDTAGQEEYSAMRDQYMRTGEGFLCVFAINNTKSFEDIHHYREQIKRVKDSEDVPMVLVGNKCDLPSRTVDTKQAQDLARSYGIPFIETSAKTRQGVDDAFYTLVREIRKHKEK
Sequence of KRAS G12S (P62937 whole entry): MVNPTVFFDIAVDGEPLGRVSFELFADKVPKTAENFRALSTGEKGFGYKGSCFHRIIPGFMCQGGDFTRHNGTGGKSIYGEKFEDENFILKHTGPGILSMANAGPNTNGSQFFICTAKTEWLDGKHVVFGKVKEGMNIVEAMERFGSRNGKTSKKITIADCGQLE
Sequence of K-Ras G13C (P01116-2 other isoform, or with tags, fused parts or gaps G13C): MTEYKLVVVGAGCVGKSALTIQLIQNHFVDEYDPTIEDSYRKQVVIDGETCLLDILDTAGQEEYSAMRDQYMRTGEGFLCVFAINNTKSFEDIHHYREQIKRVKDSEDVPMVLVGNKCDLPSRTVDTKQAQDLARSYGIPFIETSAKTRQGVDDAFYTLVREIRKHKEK
Sequence of K-Ras G13C (P62937 whole entry): as the sequence (P62937 whole entry) above
Sequence of NRAS Q61R (P01111 whole entry Q61R): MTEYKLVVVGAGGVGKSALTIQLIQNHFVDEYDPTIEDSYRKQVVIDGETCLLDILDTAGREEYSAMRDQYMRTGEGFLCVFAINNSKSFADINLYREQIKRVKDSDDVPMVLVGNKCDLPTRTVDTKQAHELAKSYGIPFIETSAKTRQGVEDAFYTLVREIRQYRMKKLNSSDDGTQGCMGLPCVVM
Sequence of NRAS Q61R (P62937 whole entry): as the sequence (P62937 whole entry) above
Sequence of NRAS Q61K (P01111 whole entry Q61K): as the sequence (P01111 whole entry Q61R) above, with R61K counted along it
Sequence of NRAS Q61K (P62937 whole entry): as the sequence (P62937 whole entry) above
Sequence of KRAS WT (P01116-2 other isoform, or with tags, fused parts or gaps): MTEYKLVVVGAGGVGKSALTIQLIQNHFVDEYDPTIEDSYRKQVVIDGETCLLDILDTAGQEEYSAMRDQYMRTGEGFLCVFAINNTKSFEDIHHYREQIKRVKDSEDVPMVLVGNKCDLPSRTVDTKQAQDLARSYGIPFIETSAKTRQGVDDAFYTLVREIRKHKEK
Sequence of KRAS WT (P62937 whole entry): as the sequence (P62937 whole entry) above
Sequence of KRAS Q61H (P01116-2 other isoform, or with tags, fused parts or gaps Q61H): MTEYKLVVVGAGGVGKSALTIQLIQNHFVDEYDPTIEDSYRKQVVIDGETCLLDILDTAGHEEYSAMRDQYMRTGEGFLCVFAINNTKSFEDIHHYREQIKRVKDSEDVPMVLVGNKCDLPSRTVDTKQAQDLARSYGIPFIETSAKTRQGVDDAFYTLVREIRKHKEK
Sequence of KRAS Q61H (P62937 whole entry): as the sequence (P62937 whole entry) above

Structure (SMILES): C=CC(=O)Nc1cnc(OC[C@H](C(=O)N[C@H]2Cc3cccc(c3)-c3ccc4c(c3)c(c(-c3cccnc3[C@H](C)OC)n4CC)CC(C)(C)COC(=O)[C@@H]3CCCN(N3)C2=O)C(C)C)n1C (atropisomer, axis not shown) [Example A600]
- IC50 [1]: < 10 nM
- IC50 [2]: 10 to 100 nM
- IC50 [3]: 1000 to 10000 nM
- IC50 [4]: 1000 to 10000 nM
- IC50 [5]: 100 to 1000 nM
- IC50 [6]: 1000 to 10000 nM
- IC50 [7]: 100 to 1000 nM

Structure (SMILES): C=CC(=O)N1CCOC2(C1)CN(C(=O)N(C)[C@H](C(=O)N[C@H]1Cc3nc(cs3)-c3ccc4c(c3)c(c(-c3cccnc3[C@H](C)OC)n4CC(F)(F)F)CC(C)(C)COC(=O)[C@@H]3CCCN(N3)C1=O)C(C)C)C2 (atropisomer, axis not shown) [Example A604]
- IC50 [1]: < 10 nM
- IC50 [2]: 10 to 100 nM
- IC50 [3]: 100 to 1000 nM
- IC50 [4]: 100 to 1000 nM
- IC50 [5]: 100 to 1000 nM
- IC50 [6]: 100 to 1000 nM
- IC50 [7]: 100 to 1000 nM

Structure (SMILES): C=CC(=O)N1CCOC2(CCN(C(=O)N(C)[C@H](C(=O)N[C@H]3Cc4cc(CF)cc(c4)-c4ccc5c(c4)c(c(-c4cccnc4[C@H](C)OC)n5CC(F)(F)F)CC(C)(C)COC(=O)[C@@H]4CCCN(N4)C3=O)C(C)C)CC2)C1 (atropisomer, axis not shown) [Example A605]
- IC50 [1]: 10 to 100 nM
- IC50 [2]: 10 to 100 nM
- IC50 [3]: 100 to 1000 nM
- IC50 [4]: 100 to 1000 nM
- IC50 [5]: 10 to 100 nM
- IC50 [6]: 100 to 1000 nM
- IC50 [7]: 10 to 100 nM

Structure (SMILES): C=CC(=O)N1CCOC2(CCN(C(=O)N(C)[C@H](C(=O)N[C@H]3Cc4cccc(c4)-c4ccc5c(c4)c(c(-c4cccnc4[C@H](C)OC)n5CC(F)(F)F)CC(C)(C)COC(=O)[C@@H]4CCCN(N4)C3=O)C(C)C)CC2)C1 (atropisomer, axis not shown) [Example A608]
- IC50 [1]: 10 to 100 nM
- IC50 [2]: 10 to 100 nM
- IC50 [3]: 100 to 1000 nM
- IC50 [4]: 100 to 1000 nM
- IC50 [5]: 100 to 1000 nM
- IC50 [6]: 100 to 1000 nM
- IC50 [7]: 10 to 100 nM

Structure (SMILES): C=CC(=O)N1CCC[C@@H]2CN(C(=O)N(C)[C@H](C(=O)N[C@H]3Cc4nc(cs4)-c4ccc5c(c4)c(c(-c4cccnc4[C@H](C)OC)n5CC)CC(C)(C)COC(=O)[C@@H]4CCCN(N4)C3=O)C(C)C)C[C@@H]21 (atropisomer, axis not shown) [Example A619]
- IC50 [1]: 10 to 100 nM
- IC50 [2]: 100 to 1000 nM
- IC50 [3]: 100 to 1000 nM
- IC50 [4]: 100 to 1000 nM
- IC50 [5]: 1000 to 10000 nM
- IC50 [6]: 1000 to 10000 nM
- IC50 [7]: 100 to 1000 nM

Structure (SMILES): CCn1c(-c2cccnc2[C@H](C)OC)c2c3cc(ccc31)-c1csc(n1)C[C@H](NC(=O)[C@H](C(C)C)N(C)C(=O)N1CCC3(CC1)CN(C(=O)/C=C/CF)C3)C(=O)N1CCC[C@H](N1)C(=O)OCC(C)(C)C2 (atropisomer, axis not shown) [Example A622]
- IC50 [1]: 10 to 100 nM
- IC50 [2]: 10 to 100 nM
- IC50 [3]: 100 to 1000 nM
- IC50 [4]: 10 to 100 nM
- IC50 [5]: 100 to 1000 nM
- IC50 [6]: 100 to 1000 nM
- IC50 [7]: 10 to 100 nM

Structure (SMILES): CCn1c(-c2cccnc2[C@H](C)OC)c2c3cc(ccc31)-c1csc(n1)C[C@H](NC(=O)[C@@H](F)COC1CN(C(=O)C#CC(C)(C)N(C)C)C1)C(=O)N1CCC[C@H](N1)C(=O)OCC(C)(C)C2 (atropisomer, axis not shown) [Example A626]
- IC50 [1]: 10 to 100 nM
- IC50 [2]: 1000 to 10000 nM
- IC50 [3]: 1000 to 10000 nM
- IC50 [4]: 1000 to 10000 nM
- IC50 [5]: 1000 to 10000 nM
- IC50 [6]: 1000 to 10000 nM
- IC50 [7]: 100 to 1000 nM

Structure (SMILES): CO[C@@H](C)c1ncccc1-c1c2c3cc(ccc3n1CC(F)(F)F)N1CCO[C@@H](C[C@H](NC(=O)[C@H](C(C)C)N3CC[C@@]4(CCN(C(=O)C#CC(C)(C)N(C)C)C4)C3=O)C(=O)N3CCC[C@H](N3)C(=O)OCC(C)(C)C2)C1 (atropisomer, axis not shown) [Example A628]
- IC50 [1]: 10 to 100 nM
- IC50 [2]: 1000 to 10000 nM
- IC50 [3]: > 10000 nM
- IC50 [4]: > 10000 nM
- IC50 [5]: > 10000 nM
- IC50 [6]: 1000 to 10000 nM
- IC50 [7]: > 10000 nM
